In the NIST ThermoML archive (doi:10.1021/je700339f):

Assay: xn = mol fraction of the nth substance listed
Details: 298 K, Liquid

ClCCCl [1,2-dichloroethane] + CC(=O)N(C)C
mass density [kg/m3]
Details	x2 = 0.0977	x2 = 0.2003	x2 = 0.2988	x2 = 0.4022	x2 = 0.4999	x2 = 0.6007	x2 = 0.7008	x2 = 0.7988	x2 = 0.8997
100 kPa	1210	1174.4	1141.3	1107.9	1077.4	1047.1	1018.1	990.5	963.2
500 kPa	1210.4	1174.8	1141.6	1108.2	1077.7	1047.4	1018.4	990.8	963.4
1000 kPa	1210.9	1175.2	1142.1	1108.7	1078	1047.7	1018.7	991.1	963.8
1500 kPa	1211.3	1175.6	1142.5	1109	1078.4	1048.1	1019.1	991.4	964.1
2000 kPa	1211.8	1176	1142.9	1109.5	1078.8	1048.4	1019.4	991.8	964.4
2500 kPa	1212.2	1176.5	1143.3	1109.9	1079.2	1048.8	1019.8	992	964.7
3000 kPa	1212.6	1176.9	1143.8	1110.2	1079.6	1049.1	1020.1	992.4	965
3500 kPa	1213.2	1177.3	1144.1	1110.6	1080	1049.5	1020.5	992.7	965.3
4000 kPa	1213.6	1177.7	1144.6	1111	1080.4	1049.8	1020.9	993.1	965.6
4500 kPa	1214	1178.2	1144.8	1111.5	1080.8	1050.1	1021.1	993.4	965.9
5000 kPa	1214.5	1178.6	1145.4	1111.8	1081.1	1050.5	1021.5	993.7	966.2
5500 kPa	1215	1179	1145.8	1112.2	1081.5	1050.8	1021.8	994	966.5
6000 kPa	1215.4	1179.5	1146.1	1112.6	1081.8	1051.2	1022.1	994.3	966.9
6500 kPa	1215.9	1179.9	1146.6	1113	1082.2	1051.6	1022.5	994.7	967.2
7000 kPa	1216.3	1180.3	1147	1113.4	1082.6	1052	1022.8	995	967.5
7500 kPa	1216.7	1180.7	1147.4	1113.8	1083	1052.3	1023.1	995.3	967.8
8000 kPa	1217.2	1181.2	1147.8	1114.1	1083.3	1052.7	1023.5	995.6	968.1
8500 kPa	1217.7	1181.5	1148.2	1114.5	1083.7	1053	1023.8	996	968.4
9000 kPa	1218.1	1182	1148.6	1114.9	1084	1053.4	1024.2	996.3	968.8
9500 kPa	1218.5	1182.4	1149	1115.3	1084.4	1053.8	1024.4	996.6	969
10000 kPa	1219	1182.9	1149.5	1115.7	1084.8	1054.2	1024.8	996.9	969.4
10500 kPa	1219.4	1183.3	1149.8	1116.1	1085.2	1054.5	1025.2	997.2	969.6
11000 kPa	1219.9	1183.7	1150.3	1116.5	1085.6	1054.8	1025.5	997.6	970
11500 kPa	1220.3	1184.2	1150.7	1116.9	1085.9	1055.2	1025.8	997.9	970.3
11900 kPa	–	–	–	–	1086.2	–	–	–	–
12000 kPa	1220.8	1184.6	1151.1	1117.2	–	1055.5	1026.1	998.2	970.6
12500 kPa	1221.2	1185	1151.5	1117.6	1086.6	1055.8	1026.5	998.5	970.9
13000 kPa	1221.6	1185.4	1151.9	1118	1087	1056.2	1026.8	998.8	971.2
13500 kPa	1222	1185.8	1152.2	1118.4	1087.3	1056.5	1027.1	999.2	971.5
14000 kPa	1222.4	1186.3	1152.6	1118.7	1087.7	1056.8	1027.4	999.4	971.7
14500 kPa	1222.9	1186.7	1153	1119.1	1088	1057.1	1027.8	999.7	972
14900 kPa	1223.2	–	–	–	–	–	–	–	–
15000 kPa	–	1187.1	1153.4	1119.4	1088.4	1057.5	1028	1000	972.3
15500 kPa	1223.7	1187.4	1153.8	1119.8	1088.7	1057.8	1028.4	1000.4	972.6
15900 kPa	–	–	–	1120.1	–	–	–	–	–
16000 kPa	1224.1	1187.8	1154.2	–	1089.1	1058.1	1028.7	1000.6	972.9
16400 kPa	1224.5	–	–	–	–	–	–	–	–
16500 kPa	–	1188.2	1154.6	1120.5	1089.4	1058.4	1029	1001	973.2
16900 kPa	–	–	–	–	–	–	1029.3	–	–
17000 kPa	1224.9	1188.6	1155	1120.9	1089.8	1058.8	–	1001.3	973.4
17500 kPa	1225.4	1189.2	1155.3	1121.3	1090.1	1059.2	1029.7	1001.5	973.7
17900 kPa	–	–	–	1121.5	–	–	–	–	–
18000 kPa	1225.8	1189.5	1155.7	–	1090.4	1059.5	1029.9	1001.8	974
18500 kPa	1226.1	1189.8	1156.1	1122	1090.8	1059.8	1030.2	1002.1	974.3
19000 kPa	1226.6	1190.3	1156.5	1122.4	1091.2	1060.2	1030.6	1002.5	974.7
19500 kPa	1227	1190.6	1156.8	1122.7	1091.5	1060.5	1030.9	1002.7	975
20000 kPa	1227.5	–	1157.2	1123.1	1091.9	1060.8	1031.2	1003	–
20100 kPa	–	1191.1	–	–	–	–	–	–	975.4
